Test results taken from publication PMC11728001, “Design, Synthesis, and Biological Evaluation of Novel Urea-Containing Carnosic Acid Derivatives with Anticancer Activity” (International Journal of Molecular Sciences, 2024).

Assays:
Assay type in all cases: cell-based
[1] = tested on: SW480 cells; assay: Apoptosis assay (annexin V-FITC/PI, FACS); conditions: SW480, IC50 concentration
Excerpt: Apoptosis can be detected by staining the cells with annexin V and propidium iodide (PI). […] However, during the early stages of apoptosis, the membrane flips and PS is exposed on the outer side of the cell membrane. Thus, annexin V fluorescently labeled with fluorescein isothiocyanate (FITC) binds with high affinity for PS. In late apoptosis/necrosis, the cells experience a ruptured membrane, allowing Annexin V to interact with the entire cell membrane. At this stage, the nuclear membrane loses its integrity, which facilitates the binding of PI to DNA. Thus, this dual-staining protocol allows for the detection and quantification of live cells (annexin V−, PI−), early apoptotic cells (annexin V+, PI−), and late apoptotic/necrotic cells (annexin V+, PI+).
SW480 cells (1.68 × 10^5 cells/well) were seeded in 6-well plates and incubated at 37 °C for 24 h. Subsequently, the growth medium was replaced with fresh medium (control) or compound 14 at the previously determined IC50 concentration. Following incubation for 24, 48, or 72 h, the adherent cells were gently detached by trypsinization, washed with DPBS, and collected by centrifugation. Similarly, the cells in suspension were washed with DPBS and collected by centrifugation, along with the adhered cells. […]

[2] = tested on: BJ non-tumoral fibroblast cell line; assay: MTT cell viability assay, BJ; conditions: 72 h incubation
Method: (§1) The effect of the compounds on cell viability was evaluated using the MTT assay. HCT116 (3000 cells/well), SW620 (8000 cells/well), SW480 (6000 cells/well), Caco-2 (4000 cells/well), A375 (1500 cells/well), MiaPaca-2 (2000 cells/well), and BJ (10,000 cells/well) cells were seeded in 96-well plates. After 24 h, the growth medium was replaced with a fresh medium containing the desired concentration of the compound or DMSO (control). After 72 h of incubation, the supernatant was removed and 100 µL of a mixture (1:1) of filtered MTT solution (1 mg/mL in PBS) with FBS-free medium was added to each well. After 1 h of incubation at 37 °C, the mixture was removed and 100 µL of DMSO was added to each well to dissolve the formed formazan crystals. Absorbance was immediately measured at 570 nm using a Benchmark Plus Microplate Reader (Bio-Rad Laboratories, Hercules, CA, USA). IC50 values were calculated using GraphPad Prism 9 software (GraphPad Software, San Diego, CA, USA) and expressed as the mean ± standard deviation (SD) of at least three independent experiments.

[3] = tested on: HCT116 colorectal cancer cell line; assay: MTT cell viability assay, HCT116; conditions: Homo sapiens, HCT-116, 72 h incubation, mean ± SD
Method: The antiproliferative activity of CA 1 and its derivatives was evaluated against a colorectal cancer (CRC) cell line (HCT116) using the MTT assay. The anticancer drug cisplatin was used as the reference drug.
as §1

[4] = tested on: SW480 cells; assay: Cell cycle assay (PI, FACS); conditions: SW480, IC50 concentration
Method: SW480 cells were seeded in 6-well plates and treated as described for the apoptosis assay. After centrifugation, the cells were resuspended in 500 µL DPBS and added dropwise to 4.5 mL 70% (v/v) cold ethanol. The cell suspension was kept at −20 °C for a minimum of 4 h. The cell suspension was then centrifuged, washed with cold DPBS, resuspended in 360 µL DPBS containing 10 µL RNase (10 mg/mL), and incubated for 1 h, at 37 °C, with agitation. Before FACS analysis, 20 µL PI solution (1 mg/mL) was added to the samples. FACS analysis was performed using a Gallios flow cytometer (Beckman Coulter, Brea, CA, USA) at 488 nm. Data were acquired from 1 × 10^4 cells and subsequently analyzed using the multicycle software provided by Phoenix Flow Systems (San Diego, CA, USA).

## CC(=O)Oc1c(C(C)C)cc2c(c1OC(C)=O)[C@@]1(NC(=O)NCCc3cccc(Cl)c3)CCCC(C)(C)[C@@H]1CC2 [Compound 14, (4bR,8aS)-4b-(3-(3-chlorophenethyl)ureido)-2-isopropyl-8,8-dimethyl-4b,5,6,7,8,8a,9,10-octahydrophenanthrene-3,4-diyl diacetate]
[1]; 48 and 72 h
  increase of cells in late apoptosis/necrosis: not sustained
[1]; 24 h, control 6.5%
  percentage of cells in late apoptosis/necrosis: 8.3%
[2]
  IC50: > 25 µM
[3]
  IC50: 9.8 ± 0.5 µM
[4]; 24 h, control 50.3%
  percentage of cells in the G0/G1 phase: 71%
[4]; at the three time points (24, 48, 72 h)
  percentage of cells in the G0/G1 phase: higher than 66.6%
